Measured values: patent publication US20210308173A1, “PHARMACEUTICAL COMPOSITION COMPRISING CYCLODEXTRIN COMPLEXES OF ANETHOLE TRITHIONE OR DERIVATIVES THEREOF” (priority 2018, published 2021)

Assay: Cyclodextrin-AOL solubility diagrams
Assay type: physicochemical
Description: A cyclodextrin-AOL solubility diagram would reveal the profile of the solubility curve of the AOL depending on the concentration of the cyclodextrin. The principle of this method is to add an excess of AOL to cyclodextrin solutions of increasing concentration, then to measure the amount of solubilized AOL. This method confirms the solubilization and evaluates more precisely the cyclodextrin solubilizing power, to define a stoichiometry of the complexes (molar and mass ratios) over the entire range of concentrations studied and to estimate the solubility limit and the stability of the mixtures.
The solubilization was carried out with HP-β-CD and SBE-β-CD in a range of concentration ranging from 2.5% to 40% (m/m) at 20° C., 25° C. and 30° C. To check the stability of the solution, a storage test at 4° C. for 48 hours was carried out with the solutions previously prepared at 20° C.
Aqueous solutions of cyclodextrin at in weight (m/m) concentrations of 2.5%, 5%, 10%, 20%, 30% and 40% were prepared in pure water. An excess of AOL was suspended in 2 mL each of these solutions. Each sample is shaken at 20° C., 25° C. or 30° C. for 4 hours (vortex at 1400 rpm). Each sample is centrifuged (12,500 g) and filtered through a 0.45 μm membrane.
The solubility of AOL in each test solution was quantified by HPLC as detailed in Example 2.

[1] = HP-β-CD 2.5% (w/w), 20° C. followed by 48 hours at 4° C.
[2] = HP-β-CD 5% (w/w), 20° C. followed by 48 hours at 4° C.
[3] = HP-β-CD 10% (w/w), 20° C. followed by 48 hours at 4° C.
[4] = HP-β-CD 20% (w/w), 20° C. followed by 48 hours at 4° C.
[5] = HP-β-CD 30% (w/w), 20° C. followed by 48 hours at 4° C.
[6] = HP-β-CD 40% (w/w), 20° C. followed by 48 hours at 4° C.
[7] = SBE-β-CD 2.5% (w/w), 20° C. followed by 48 hours at 4° C.
[8] = SBE-β-CD 5% (w/w), 20° C. followed by 48 hours at 4° C.
[9] = SBE-β-CD 10% (w/w), 20° C. followed by 48 hours at 4° C.

CD/AOL molar ratio RM (HP-β-CD 2.5% (w/w), 20° C.): 200
CD/AOL weight ratio Rm (HP-β-CD 2.5% (w/w), 20° C.): 1866
CD/AOL molar ratio RM [1]: 231
CD/AOL weight ratio Rm [1]: 2155
CD/AOL molar ratio RM (HP-β-CD 2.5% (w/w), 25° C.): 137
CD/AOL weight ratio Rm (HP-β-CD 2.5% (w/w), 25° C.): 1282
CD/AOL molar ratio RM (HP-β-CD 2.5% (w/w), 30° C.): 103
CD/AOL weight ratio Rm (HP-β-CD 2.5% (w/w), 30° C.): 958
CD/AOL molar ratio RM (HP-β-CD 5% (w/w), 20° C.): 196
CD/AOL weight ratio Rm (HP-β-CD 5% (w/w), 20° C.): 1832
CD/AOL molar ratio RM [2]: 213
CD/AOL weight ratio Rm [2]: 1992
CD/AOL molar ratio RM (HP-β-CD 5% (w/w), 25° C.): 133
CD/AOL weight ratio Rm (HP-β-CD 5% (w/w), 25° C.): 1247
CD/AOL molar ratio RM (HP-β-CD 5% (w/w), 30° C.): 104
CD/AOL weight ratio Rm (HP-β-CD 5% (w/w), 30° C.): 973
CD/AOL molar ratio RM (HP-β-CD 10% (w/w), 20° C.): 175
CD/AOL weight ratio Rm (HP-β-CD 10% (w/w), 20° C.): 1631
CD/AOL molar ratio RM [3]: 203
CD/AOL weight ratio Rm [3]: 1898
CD/AOL molar ratio RM (HP-β-CD 10% (w/w), 25° C.): 128
CD/AOL weight ratio Rm (HP-β-CD 10% (w/w), 25° C.): 1192
CD/AOL molar ratio RM (HP-β-CD 10% (w/w), 30° C.): 94
CD/AOL weight ratio Rm (HP-β-CD 10% (w/w), 30° C.): 874
CD/AOL molar ratio RM (HP-β-CD 20% (w/w), 20° C.): 148
CD/AOL weight ratio Rm (HP-β-CD 20% (w/w), 20° C.): 1381
CD/AOL molar ratio RM [4]: 197
CD/AOL weight ratio Rm [4]: 1840
CD/AOL molar ratio RM (HP-β-CD 20% (w/w), 25° C.): 116
CD/AOL weight ratio Rm (HP-β-CD 20% (w/w), 25° C.): 1086
CD/AOL molar ratio RM (HP-β-CD 20% (w/w), 30° C.): 84
CD/AOL weight ratio Rm (HP-β-CD 20% (w/w), 30° C.): 784
CD/AOL molar ratio RM (HP-β-CD 30% (w/w), 20° C.): 132
CD/AOL weight ratio Rm (HP-β-CD 30% (w/w), 20° C.): 1235
CD/AOL molar ratio RM [5]: 172
CD/AOL weight ratio Rm [5]: 1607
CD/AOL molar ratio RM (HP-β-CD 30% (w/w), 25° C.): 112
CD/AOL weight ratio Rm (HP-β-CD 30% (w/w), 25° C.): 1044
CD/AOL molar ratio RM (HP-β-CD 30% (w/w), 30° C.): 70
CD/AOL weight ratio Rm (HP-β-CD 30% (w/w), 30° C.): 655
CD/AOL molar ratio RM (HP-β-CD 40% (w/w), 20° C.): 124
CD/AOL weight ratio Rm (HP-β-CD 40% (w/w), 20° C.): 1162
CD/AOL molar ratio RM [6]: 159
CD/AOL weight ratio Rm [6]: 1481
CD/AOL molar ratio RM (HP-β-CD 40% (w/w), 25° C.): 103
CD/AOL weight ratio Rm (HP-β-CD 40% (w/w), 25° C.): 958
CD/AOL molar ratio RM (HP-β-CD 40% (w/w), 30° C.): 66
CD/AOL weight ratio Rm (HP-β-CD 40% (w/w), 30° C.): 621
CD/AOL molar ratio RM (SBE-β-CD 2.5% (w/w), 20° C.): 91
CD/AOL weight ratio Rm (SBE-β-CD 2.5% (w/w), 20° C.): 853
CD/AOL molar ratio RM [7]: 158
CD/AOL weight ratio Rm [7]: 1479
CD/AOL molar ratio RM (SBE-β-CD 2.5% (w/w), 25° C.): 75
CD/AOL weight ratio Rm (SBE-β-CD 2.5% (w/w), 25° C.): 698
CD/AOL molar ratio RM (SBE-β-CD 2.5% (w/w), 30° C.): 60
CD/AOL weight ratio Rm (SBE-β-CD 2.5% (w/w), 30° C.): 559
CD/AOL molar ratio RM (SBE-β-CD 5% (w/w), 20° C.): 90
CD/AOL weight ratio Rm (SBE-β-CD 5% (w/w), 20° C.): 838
CD/AOL molar ratio RM [8]: 155
CD/AOL weight ratio Rm [8]: 1445
CD/AOL molar ratio RM (SBE-β-CD 5% (w/w), 25° C.): 71
CD/AOL weight ratio Rm (SBE-β-CD 5% (w/w), 25° C.): 668
CD/AOL molar ratio RM (SBE-β-CD 5% (w/w), 30° C.): 56
CD/AOL weight ratio Rm (SBE-β-CD 5% (w/w), 30° C.): 520
CD/AOL molar ratio RM (SBE-β-CD 10% (w/w), 20° C.): 85
CD/AOL weight ratio Rm (SBE-β-CD 10% (w/w), 20° C.): 798
CD/AOL molar ratio RM [9]: 151
CD/AOL weight ratio Rm [9]: 1414
CD/AOL molar ratio RM (SBE-β-CD 10% (w/w), 25° C.): 68
CD/AOL weight ratio Rm (SBE-β-CD 10% (w/w), 25° C.): 639
CD/AOL molar ratio RM (SBE-β-CD 10% (w/w), 30° C.): 54
CD/AOL weight ratio Rm (SBE-β-CD 10% (w/w), 30° C.): 507
CD/AOL molar ratio RM (SBE-β-CD 20% (w/w), 20° C.): 77
SMILES: COc1ccc(-c2cc(=S)ss2)cc1 [AOL, 5-(4-methoxyphenyl)-3H-1,2-dithiole-3-thione]
